Laboratory results published in patent US9828350B2, “5,6-dihydro-2H-[1,4]oxazin-3-yl-amine derivatives useful as inhibitors of beta-secretase (BACE)” (Janssen Pharmaceutica NV, priority 2010, dated 2017).

How the values were obtained:
Abeta 1-42 = assay: Cellular αLisa assay in SKNBE2 cells, Abeta 1-42; format: cell-based, human; settings: incubated for 18 hours; for IC50: Homo sapiens, SKNBE2, 18 h, read-out: Cellular αLisa assay in SKNBE2 cells Abeta 42 pIC50 (converted)
In short: (§1)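 Secreted Abeta levels were measured by sandwich αLisa, pairing biotin-AbN/25 donor beads with Ab4G8 acceptor beads for total Abeta or cAb42/26 for Abeta 1-42, read at 615 nm after 650 nm excitation following 1 hour. Cells were SKNBE2 expressing wild-type hAPP695, exposed to compound for 18 hours.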

[1] = target: recombinant BACE1 protein (Homo sapiens, UniProt P56817); assay: Biochemical FRET based assay; settings: recombinant BACE1 1 μg/ml, 120 minutes at room temperature, pH 5.0; for IC50: read-out: Biochemical FRET based assay pIC50 (converted)
In short: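 Proteolysis was read as the rise in donor fluorescence (320 nm excitation, 405 nm emission) from T0 to T120, expressed in RFU. The reaction ran 120 minutes at room temperature at pH 5.0 in citrate buffer with 4% DMSO, using […] quenched Swedish APP peptide and 1 μg/ml BACE1.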

Abeta total = assay: Cellular αLisa assay in SKNBE2 cells, Abeta total; format: cell-based, human; settings: incubated for 18 hours; for IC50: Homo sapiens, SKNBE2, 18 h, read-out: Cellular αLisa assay in SKNBE2 cells Abetatotal pIC50 (converted)
In short: as §1

Chain of recombinant BACE1 protein (P56817 46-501): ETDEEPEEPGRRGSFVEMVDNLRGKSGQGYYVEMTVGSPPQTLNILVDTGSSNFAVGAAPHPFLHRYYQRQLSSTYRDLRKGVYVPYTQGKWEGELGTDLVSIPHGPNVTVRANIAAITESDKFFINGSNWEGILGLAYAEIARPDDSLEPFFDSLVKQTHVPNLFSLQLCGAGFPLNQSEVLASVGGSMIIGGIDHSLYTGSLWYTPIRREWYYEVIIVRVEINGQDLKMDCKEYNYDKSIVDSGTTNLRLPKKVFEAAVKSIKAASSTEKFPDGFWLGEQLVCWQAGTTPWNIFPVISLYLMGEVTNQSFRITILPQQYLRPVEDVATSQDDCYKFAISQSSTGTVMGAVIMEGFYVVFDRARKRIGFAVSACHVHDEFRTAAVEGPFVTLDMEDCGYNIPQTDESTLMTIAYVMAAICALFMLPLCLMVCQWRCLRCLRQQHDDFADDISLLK

IC50 (Abeta 1-42) [nM] | IC50 [1] [nM] | IC50 (Abeta total) [nM] | Cellular αLisa assay in SKNBE2 cells Abeta 42 pIC50 (Abeta 1-42) | Biochemical FRET based assay pIC50 [1] | Cellular αLisa assay in SKNBE2 cells Abetatotal pIC50 (Abeta total) | SMILES
209 | 550 | 204 |  |  |  | C[C@]1(c2cc(NC(=O)c3ccncn3)ccc2F)N=C(N)CO[C@@]1(F)C(F)(F)F [Compound 182]
 |  |  | 7.59 | 6.7 | 7.663 | CC1(c2cc(NC(=O)c3cnc(C(F)(F)F)cn3)ccc2F)COCC(N)=N1 (stereo not drawn) [Compound 22]
6.92 | 36.3 | 7.41 |  |  |  | C[C@]1(c2cc(NC(=O)c3ncc(C#N)cc3Cl)ccc2F)N=C(N)CO[C@]1(F)C(F)(F)F [Compound 306]
 | 1550 |  | 5.91 |  | 5.93 | CCC1(c2cc(NC(=O)c3cnc(OC)cn3)ccc2F)N=C(N)COC1(F)C(F)(F)F (stereo not drawn) [Compound 300]
 |  |  | 6.7 | 5.11 | 6.68 | CC1(c2cc(-c3cncnc3)ccc2F)COCC(N)=N1 (racemic) [Compound 58]
 | 20000 |  | 5.33 |  | 5.35 | COc1cnc(C(=O)Nc2cccc(C3(C)N=C(N)COC3(F)C(F)(F)F)c2)cn1 (single isomer, unassigned) [Compound 178]
 | > 30200 |  | <5 |  | <5 | CCC1(c2cc(-c3cncnc3)ccc2F)N=C(N)COC1(F)C(F)(F)F (stereo not drawn) [Compound 302]
 |  |  | 6.94 | 5.46 | 6.9 | COc1cncc(-c2ccc(F)c(C3(C)COCC(N)=N3)c2)c1 (racemic) [Compound 63]
10.5 | 25.7 | 10.2 |  |  |  | C[C@]1(c2cccc(NC(=O)c3ccc(C#N)cn3)c2)N=C(N)CO[C@]1(F)C(F)(F)F [Compound 240]
 | 21.9 |  | 8.11 |  | 8.07 | CC1(c2cccc(NC(=O)c3ncc(Cl)cc3F)c2)N=C(N)COC1(F)C(F)(F)F (single isomer, unassigned) [Compound 173]
 | 525 |  | 7.16 |  | 7.16 | CC1(c2cc(-c3cncc(C#N)c3)ccc2F)N=C(N)COC1C(F)(F)F (single isomer, unassigned) [Compound 265]
 | 1410 |  | 6.48 |  | 6.5 | CC1(c2cccc(-c3cncnc3)c2)N=C(N)COC1F (single isomer, unassigned) [Compound 95]
 | > 30200 |  | <5 |  | <5 | CC1(c2cccc(-c3cncnc3)c2)N=C(N)COC1(F)C(F)(F)F (single isomer, unassigned) [Compound 139]
 |  |  | 6.7 | 6.52 | 6.69 | N#Cc1ccc(C(=O)Nc2cccc(C3(C4CC4)N=C(N)COC3(F)C(F)(F)F)c2)nc1 (stereo not drawn) [Compound 198]
12.3 | 20.4 | 12.3 |  |  |  | C[C@]1(c2cccc(NC(=O)c3ncc(Cl)cc3Cl)c2)N=C(N)CO[C@]1(F)C(F)(F)F [Compound 242]
 |  |  | <5 | 5.42 | <5 | NC1=NC(c2cc(-c3cncnc3)ccc2F)(C2CC2)C(F)OC1 (stereo not drawn) [Compound 296]
 | 363 |  | 7 |  | 7.09 | CC1(c2cc(-c3cncnc3)ccc2F)N=C(N)COC1C(F)(F)F (single isomer, unassigned) [Compound 268]
 | > 30200 |  | <5 |  | ~5 | CC1(c2cc(-c3cncc(C#N)c3)ccc2F)N=C(N)COC1C(F)(F)F (single isomer, unassigned) [Compound 266]
> 10000 | 14800 | > 10000 |  |  |  | NC1=N[C@@](c2cc(-c3cncnc3)ccc2F)(C2CC2)[C@H](F)OC1 [Compound 224, (5R,6S)-5-cyclopropyl-6-fluoro-5-(2-fluoro-5-pyrimidin-5-ylphenyl)-5,6-dihydro-2H-1,4-oxazin-3-amine]
 | 11200 |  | 5.62 |  | 5.67 | COc1cncc(-c2cccc(C3(C)N=C(N)COC3(F)C(F)(F)F)c2)c1 (single isomer, unassigned) [Compound 119]

More lines, now with the values behind:

SMILES | IC50 (Abeta 1-42) [nM] | IC50 [1] [nM] | IC50 (Abeta total) [nM] | Cellular αLisa assay in SKNBE2 cells Abeta 42 pIC50 (Abeta 1-42) | Biochemical FRET based assay pIC50 [1] | Cellular αLisa assay in SKNBE2 cells Abetatotal pIC50 (Abeta total)
Cc1cc(Cl)cnc1C(=O)Nc1cccc([C@@]2(C3CC3)N=C(N)CO[C@H]2F)c1 [Compound 298] | 61.7 | 123 | 58.9 |  |  | 
C[C@]1(c2cc(-c3cncc(F)c3)c(F)cc2F)N=C(N)CO[C@@H]1C(F)(F)F [Compound 316] | 724 | 1150 | 631 |  |  | 
COc1cncc(-c2cccc(C3(C)N=C(N)COC3C(F)(F)F)c2)c1 (single isomer, unassigned) [Compound 103] |  | 2090 |  | 6.38 |  | 6.35
C[C@]1(c2cc(-c3cncc(C#N)c3)c(F)cc2F)N=C(N)CO[C@H]1C(F)(F)F [Compound 351] | 550 | 2040 | 468 |  |  | 
N#Cc1ccc(C(=O)Nc2cccc(C3(C4CC4)N=C(N)COC3C(F)(F)F)c2)nc1 (stereo not drawn) [Compound 226] |  |  |  | 7.41 | 6.86 | 7.47
CC1(c2cc(-c3cncc(Cl)c3)c(F)cc2F)COCC(N)=N1 (stereo not drawn) [Compound 23] |  |  |  | 6.89 | 5.86 | 6.85
CC1(c2cccc(NC(=O)c3ccc(Cl)cn3)c2)COC(F)(C(F)(F)F)C(N)=N1 (single isomer, unassigned) [Compound 154] |  |  |  | <5 | <4.52 | <5
C[C@]1(c2cccc(-c3cncnc3)c2)CO[C@@](C)(C(F)(F)F)C(N)=N1 (racemic) [Compound 162, cis-rac-2,5-dimethyl-5-(3-pyrimidin-5-ylphenyl)-2-(trifluoromethyl)-5,6-dihydro-2H-1,4-oxazin-3-amine] |  |  |  | 6.1 | 5.21 | 6.14
COc1cnc(C(=O)Nc2cccc(C3(C)N=C(N)COC3F)c2)cn1 (single isomer, unassigned) [Compound 132] |  | 1100 |  | 6.35 |  | 6.38
CC1(c2cccc(NC(=O)c3ccc(Cl)cn3)c2)N=C(N)COC1F (single isomer, unassigned) [Compound 90] |  |  |  | 7.76 | 6.37 | 7.76
CC1(c2cc(NC(=O)c3ncc(Cl)cc3F)ccc2F)COCC(N)=N1 (stereo not drawn) [Compound 35] |  |  |  | 8.37 | 7.11 | 8.4
COc1cncc(-c2cccc(C3(C)N=C(N)COC3F)c2)c1 (single isomer, unassigned) [Compound 89] |  | 5500 |  | 6.51 |  | 6.67
CC1(c2cc(NC(=O)c3ccc(F)cn3)ccc2F)COCC(N)=N1 (stereo not drawn) [Compound 25] |  |  |  | 7.93 | 6.93 | 7.9
C[C@@]1(c2cccc(NC(=O)c3ccc(Cl)cn3)c2)N=C(N)CO[C@H]1F (racemic) [Compound 91, trans-rac-N-[3-(5-amino-2-fluoro-3-methyl-3,6-dihydro-2H-1,4-oxazin-3-yl)phenyl]-5-chloropyridine-2-carboxamide] |  |  |  | 7.82 | 7.03 | 7.86
CC1(c2cc(-c3cccc(C#N)c3)c(F)cc2F)COCC(N)=N1 (stereo not drawn) [Compound 32] |  |  |  | 6.2 | 4.87 | 6.25
CC1(c2cc(NC(=O)c3ccncn3)ccc2F)COCC(N)=N1 (stereo not drawn) [Compound 28] |  |  |  | 7.07 | 6.18 | 7.04
COc1cncc(-c2cccc([C@]3(C)CO[C@@H](C)C(N)=N3)c2)c1 (racemic) [Compound 18, trans-rac-5-[3-(5-methoxypyridin-3-yl)phenyl]-2,5-dimethyl-5,6-dihydro-2H-1,4-oxazin-3-amine] |  |  |  | 6.57 | 5.54 | 6.61
